This experiment deals with T1, Nuclear factor erythroid 2-related factor 2 (Mus musculus, UniProt Q60795).
T1 sequence (Q60795 whole entry): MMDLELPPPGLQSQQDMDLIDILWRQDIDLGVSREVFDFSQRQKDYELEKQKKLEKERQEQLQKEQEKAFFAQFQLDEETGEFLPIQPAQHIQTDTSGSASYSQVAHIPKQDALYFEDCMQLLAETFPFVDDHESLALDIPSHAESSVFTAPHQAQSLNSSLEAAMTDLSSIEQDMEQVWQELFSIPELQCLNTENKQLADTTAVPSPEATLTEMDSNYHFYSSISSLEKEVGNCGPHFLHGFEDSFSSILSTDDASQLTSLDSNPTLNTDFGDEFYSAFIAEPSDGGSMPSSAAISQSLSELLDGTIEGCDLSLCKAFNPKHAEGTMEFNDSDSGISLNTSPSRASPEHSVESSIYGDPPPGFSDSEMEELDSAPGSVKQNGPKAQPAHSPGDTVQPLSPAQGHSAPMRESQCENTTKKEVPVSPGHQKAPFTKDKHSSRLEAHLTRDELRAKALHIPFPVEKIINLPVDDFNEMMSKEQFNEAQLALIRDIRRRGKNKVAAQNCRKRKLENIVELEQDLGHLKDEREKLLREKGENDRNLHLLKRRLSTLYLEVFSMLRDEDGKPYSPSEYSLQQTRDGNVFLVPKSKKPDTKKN
Briefly: Inhibition of Nrf2 in mouse MYC-3T3-ARELUC cells harboring a stably integrated ARE by firefly luciferase reporter gene assay. Type of experiment: cell-based.

`Fc1ccc(-c2csc3ncnc(NCc4ccc5c(c4)OCO5)c23)cc1` had an EC50 of 0.65 µM.

The record behind these values is ChEMBL document CHEMBL4433197, “Nuclear Factor Erythroid 2-Related Factor 2 (Nrf2) Inhibition: An Emerging Strategy in Cancer Therapy” (J Med Chem, 2019).
